# Reference: patent US20210196779A1, “Compositions and Methods for Treating Steroid Hormone-Related Diseases or Disorders” (YALE UNIVERSITY, priority 2018, published 2021)
# Key:
# Type in all cases: cell-based
# LNCaP cells = test: Cell growth assay, LNCaP prostate cancer cells
# Procedure: (§1) 22RV1 or LNCaP prostate cancer cells were grown in corning T75 cell culture flasks in RPMI1640 medium supplemented with 5% FBS, 50 μg/ml Kanamycin in a 37° C., 5% CO2 incubator.
# (§2) 20,000 cells in 1 ml of medium (phenol red free RPMI1640, 5% charcoal-dialysis FBS, 50 μg/ml Kanamyacin) were seeded per well of a 24-well plate and incubated in a 37° C. incubator with 5% CO2 overnight. Different concentrations of herbal extract were added to each well in order to have final concentrations from 50 μg/ml to 500 μg/ml. […] For glucocorticoid receptor overexpressed LNCaP cells, dexamethasone (50 nM) was used to stimulate glucocorticoid receptor activity. For all breast cancer cells, E2 (10 nM) was used to stimulate ER activity. Control medium without any steroid hormone was used as a control setting. After 4 days of incubation, cells were fixed and stained for 2 h with 0.5% methylene blue in 50% ethanol, followed by washing with tap water to remove unbound dye. Plates were air dried and then cells were dissolved in 1% sarkosyl (sodium lauroyl sarcosinate) by shaking at room temperature for 3 h. […] All experiments were performed in triplicate wells and were repeated at least three times.
# GR (stimulated with DEX) = target: T1, GR (stimulated with DEX) (Homo sapiens, UniProt P04150); test: GR driven luciferase activity (DEX) in LNCaP-GR cells; details: LNCaP-GR luciferase reporter cells
# T1 construct: expressed in transfected cells; host or cells: LNCaP (LNCaP-GR)
# Procedure: Both LNCaP and GR overexpressing LNCaP cells were carrying luciferase reporters with AR response elements.
# (§3) Reporter cells were treated with herbal extracts at 30, 100, 300, and 1000 μg/ml for 24 h in a 37° C.-CO2 incubator. DHT (25 nM) was used to stimulate androgen receptor activity. Dexamethasone (50 nM) was used to stimulate glucocorticoid receptor activity Cells were lysed using luciferase lysis buffer after which luciferase buffer with luciferin was added to generate luminescence. Luminescence was recorded using a luminescence microplate reader.
# [1] = tested on: LNCaP-GR (GR overexpressing) cells; test: Cell growth assay, GR overexpressing LNCaP cells; details: DEX stimulated
# Procedure: as §2
# 22Rv1 cells = test: Cell growth assay, 22Rv1 prostate cancer cells; details: in the presence or absence of DHT and DEX
# Procedure: as §1, §2
# androgen receptor (AR) = test: PSA-luciferase reporter assay, DHT induced, 22RV1 cells; details: equivalent doses, 22RV1 cells in the presence of DHT
# Procedure: 22RV1 or LNCaP prostate cancer cells were used in the screening study. 22RV1 or LNCaP cell lines were stably transfected with PSA promoter-PGL4.2 luciferase reporter. DHT (25 nM) was used to stimulate androgen receptor activity for 24 h.
# as §3
# T1 sequence (P04150 whole entry): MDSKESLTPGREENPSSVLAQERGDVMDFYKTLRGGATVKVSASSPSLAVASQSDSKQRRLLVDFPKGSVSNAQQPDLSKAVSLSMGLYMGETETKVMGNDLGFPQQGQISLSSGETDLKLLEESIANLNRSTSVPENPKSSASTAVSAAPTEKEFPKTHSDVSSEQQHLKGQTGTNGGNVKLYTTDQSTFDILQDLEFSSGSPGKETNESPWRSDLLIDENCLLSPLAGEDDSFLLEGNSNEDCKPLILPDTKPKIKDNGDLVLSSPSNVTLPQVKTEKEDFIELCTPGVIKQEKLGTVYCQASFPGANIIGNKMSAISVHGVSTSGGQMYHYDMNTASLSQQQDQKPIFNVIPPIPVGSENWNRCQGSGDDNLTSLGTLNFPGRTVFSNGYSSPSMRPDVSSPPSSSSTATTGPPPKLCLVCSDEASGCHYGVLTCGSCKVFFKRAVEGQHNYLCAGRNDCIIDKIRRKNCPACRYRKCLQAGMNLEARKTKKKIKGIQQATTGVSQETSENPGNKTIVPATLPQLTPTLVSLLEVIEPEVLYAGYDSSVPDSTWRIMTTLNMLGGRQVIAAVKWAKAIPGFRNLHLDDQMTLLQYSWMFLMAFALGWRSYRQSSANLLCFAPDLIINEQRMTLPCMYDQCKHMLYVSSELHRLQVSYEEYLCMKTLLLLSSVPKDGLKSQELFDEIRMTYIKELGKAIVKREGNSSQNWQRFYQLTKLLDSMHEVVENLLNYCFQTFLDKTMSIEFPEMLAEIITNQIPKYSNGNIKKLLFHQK
SMILES,susceptibility of LNCaP cell growth to treatment (in words) (LNCaP cells; in the absence of DHT),sensitivity of LNCaP cell growth to treatment (in words) (LNCaP cells; in the presence of DHT),inhibition of DEX induced transcriptional response (GR (stimulated with DEX)),resistance of LNCaP-GR cell growth (in words) [1],growth inhibitory effect on 22RV1 cells (in words) (22Rv1 cells),inhibitory effect on AR mediated transcriptional response (androgen receptor (AR))
"CNC(=O)c1ccc(N2C(=S)N(c3ccc(C#N)c(C(F)(F)F)c3)C(=O)C2(C)C)cc1F [Enzalutamide, reference compound]",not be susceptible,more sensitive,but not DEX induced transcriptional response,resistant,resistant,
"Cc1c(O)cc2c(c1O)C(=O)c1ccc(O)cc1C2=O [TMT, 1,3,6-Trihydroxy-2-methyl-9,10-anthracenedione]",,,,,,very weak activity
